# Data: patent US11542259B2, “Compounds for the treatment of kinase-dependent disorders” (Exelixis, Inc., priority 2018, dated 2023)
# Like-named read-outs stand apart in the source and are kept apart here.
# Assay: Pharmacokinetic studies in male Sprague-Dawley rats
# Format: in vivo
# Conditions: rat; for clearance / half-life / Cmax: male, Sprague-Dawley, plasma; for half-life: read-out: t½
# Experimental: Pharmacokinetic properties of select compounds were assessed in male Sprague-Dawley rats.
# The non-GLP study was designed to investigate the pharmacokinetics of chosen compounds in plasma following an intravenous or oral dose administration to male Sprague Dawley rats. […]
# Animals in the PO group were fasted overnight prior to dose administration. Food was returned following the collection of the 4-hour blood sample. Water was not withheld.
# Immediately prior to dosing, the body weight of each animal was recorded. Doses (rounded to the nearest 0.001 mL) were calculated based on the pretreatment body weight (kg) and a dose volume of 2.5 mL/kg for intravenous administration and 5 mL/kg for oral administration. Intravenous formulations were administered via a jugular vein cannula. Immediately after dosing, the cannula was flushed with saline and the line was tied off. The oral dose was administered via a ball-tipped feeding needle. Dosing syringe volumes for administration were second-person verified prior to dosing and that volume along with the results for the concentration verification analysis were used to calculate the actual dose administered. Dosing syringes were weighed immediately prior to and immediately after dosing each animal as a gravimetric check.
# Serial blood samples (approximately 200 μL per sample) were collected from each animal at 0.083 (IV dosing only), 0.25, 0.5, 1, 2, 4, 6 (PO dosing only), 8, 24, 32, 48, and 72 hours after dosing. Blood samples were collected into tubes containing K2EDTA via the non-dosing jugular-vein cannula (JVC), which was flushed with an approximately equal volume of saline following each collection.
# Blood samples were stored on wet ice until processed to plasma by centrifugation (3500 rpm at 5° C. for 10 minutes) within 1 hour of collection. Plasma samples were transferred into matrix tubes and then stored in a −80° C. freezer.
# Plasma samples and dose formulation samples were analyzed for the compounds of interest using liquid chromatography-tandem mass spectrometry (LC-MS/MS) methods. Pharmacokinetic parameter estimates were calculated from the individual animal plasma concentration-time data using the actual dose based on the analysis of the dosing formulations, nominal sampling times (all collections were within an acceptable range of target), and non-compartmental methods. The concentration-time data were analyzed to fit either an intravenous-bolus (IV) plasma analysis model (201) or extra-vascular (P0) dosing plasma analysis model (200) using the software WinNonlin Phoenix version 6.3 (Pharsight). The single-dose pharmacokinetic parameters assessed include, as appropriate: Cmax (observed peak or maximum concentration); Tmax (observed time of peak concentration); T1/2 (terminal half-life); Vz (volume of distribution based on the terminal phase); Vss (volume of distribution at steady state); AUCINF (area under the concentration-time curve computed from time zero to infinity); AUClast (area under the concentration-time curve computed from time zero to the time of the last quantifiable concentration); C0 (back-extrapolated concentration at time zero); CL (total body clearance); Vz/F (volume of distribution for extravascular administration based on the terminal phase); CL/F (total body clearance for extravascular administration); F % (bioavailability); and MRTlast (mean residence time).
# Areas-under-the-plasma concentration-time curves (AUC) were estimated using the linear-log trapezoidal rule. The area through the time (Tlast) of the last observable concentration (Clast) is reported as AUClast. AUC extrapolated to infinity, (AUCINF) was estimated by adding AUClast and the ratio of Clast/λz, where λz is the terminal rate constant. Apparent terminal half-life (T1/2) was calculated as ln(2)/λz and determined using the slope of the log-linear terminal phase of the concentration-time curve, defined by a minimum of three plasma concentration-time points. […]
Cmax (PO (3 mg/kg)) [µM],half-life (PO (3 mg/kg)) [h],clearance (IV (3 mg/kg)) [L/h/kg],half-life (IV (3 mg/kg)) [h],SMILES,other results
15.3,5.7,,,"COc1cc2nccc(Oc3ccc(NC(=O)C4(C(=O)Nc5ccc(F)cc5)CC4)cc3)c2cc1-c1ncco1 [Compound 45, 1-N′-(4-fluorophenyl)-1-N-[4-[7-methoxy-6-(1,3-oxazol-2-yl)quinolin-4-yl]oxyphenyl]cyclopropane-1,1-dicarboxamide]",clearance (IV (1 mg/kg)): 0.041 L/h/kg; half-life (IV (1 mg/kg)): 10.1 h
0.7,2.9,0.511,2.1,"COc1cc2nccc(Oc3ccc(NC(=O)C4(C(=O)Nc5ccc(F)cc5)CC4)cc3)c2cc1S(N)(=O)=O [Compound 206, 1-N′-(4-Fluorophenyl)-1-N-[4-(7-methoxy-6-sulfamoylquinolin-4-yl)oxyphenyl]cyclopropane-1,1-dicarboxamide]",F (PO (3 mg/kg)): F = 37%

# The remaining lines, values behind:
SMILES,Cmax (PO (3 mg/kg)) [µM],half-life (PO (3 mg/kg)) [h],clearance (IV (3 mg/kg)) [L/h/kg],half-life (IV (3 mg/kg)) [h],other results
"COc1cc2nccc(Oc3ccc(NC(=O)C4(C(=O)Nc5ccc(F)cc5)CC4)cc3)c2cc1C(N)=O [Compound 7, 1-N-[4-(6-carbamoyl-7-methoxyquinolin-4-yl)oxyphenyl]-1-N′-(4-fluorophenyl)cyclopropane-1,1-dicarboxamide]",8.8,7.3,,,clearance (IV (1 mg/kg)): 0.089 L/h/kg; half-life (IV (1 mg/kg)): 3.1 h
"CNC(=O)c1cc2c(Oc3ccc(NC(=O)C4(C(=O)Nc5ccc(F)cc5)CC4)cc3)ccnc2cc1OC [Compound 8, 1-N′-(4-fluorophenyl)-1-N-[4-[7-methoxy-6-(methylcarbamoyl)quinolin-4-yl]oxyphenyl]cyclopropane-1,1-dicarboxamide]",11.4,7.1,0.043,5.4,
"CCNC(=O)c1cc2c(Oc3ccc(NC(=O)C4(C(=O)Nc5ccc(F)cc5)CC4)cc3)ccnc2cc1OC [Compound 9, 1-N-[4-[6-(ethylcarbamoyl)-7-methoxyquinolin-4-yl]oxyphenyl]-1-N′-(4-fluorophenyl)cyclopropane-1,1-dicarboxamide]",3.9,2.6,0.152,2.8,F (PO (3 mg/kg)): F = 69%
"CONC(=O)c1cc2c(Oc3ccc(NC(=O)C4(C(=O)Nc5ccc(F)cc5)CC4)cc3)ccnc2cc1OC [Compound 17, 1-N′-(4-fluorophenyl)-1-N-[4-[7-methoxy-6-(methoxycarbamoyl)quinolin-4-yl]oxyphenyl]cyclopropane-1,1-dicarboxamide]",,,,,clearance (IV (3.0 mg/kg)): 0.102 L/h/kg; half-life (IV (3.0 mg/kg)): 3 h; Cmax (PO (3.2 mg/kg)): 3.4 µM; half-life (PO (3.2 mg/kg)): 4.5 h; F (PO (3.2 mg/kg)): F = 46%
"COc1cc2nccc(Oc3ccc(NC(=O)C4(C(=O)Nc5ccc(F)cc5)CC4)cc3)c2cc1-c1ncc[nH]1 [Compound 191, 1-N′-(4-Fluorophenyl)-1-N-[4-[6-(1H-imidazol-2-yl)-7-methoxyquinolin-4-yl]oxyphenyl]cyclopropane-1,1-dicarboxamide]",,,,,clearance (IV (3.0 mg/kg)): 0.063 L/h/kg; half-life (IV (3.0 mg/kg)): 9.9 h; Cmax (PO (3.1 mg/kg)): 4.6 µM; half-life (PO (3.1 mg/kg)): 6.8 h; F (PO (3.1 mg/kg)): F = 38%
